In patent publication US10966962B2, “Method for treating neurodegenerative diseases” (THE BOARD OF TRUSTEES OF THE LELAND STANFORD JUNIOR …, priority 2014, dated 2021):

Legend:
[1] = tested on: brain perivascular macrophages; test: Brain perivascular macrophage iNOS, IL6, TNFα in ALS transgenic animals; type: in vivo, mice; settings: 25 mg/kg orally 3 times a week for 8 weeks, 13 weeks of age
Experimental: ALS transgenic animals were purchased from Jackson Laboratories. These animals express the G93A mutation in the gene SOD1 which has been implicated as the cause of the disease in a subset of human subjects with familial ALS. […] These animals represent a gold standard model for therapeutic discovery in the field of ALS research. ALS transgenic animals were orally treated 3 times a week for 8 weeks with 0.5% methylcellulose or ZLN005 (Sigma) at 25 mg/kg in 0.5% methylcellulose, starting at 5 weeks of age. For study of brain perivascular macrophages, ALS-Ctrl (n=8), ALS-ZLN (n=12), and WT animals (n=12) were sacrificed at 13 weeks of age. PBS-perfused brain tissues of sacrificed animals were digested with Collagenase IV and processed for flow cytometry. Brain perivascular macrophages were phenotyped with antibodies directed against mouse iNOS, IL6, and TNFα (Biolegend) for flow cytometric acquisition (LSRII, BD) and analysis (FlowJo). The results are summarized in FIG. 16; Y-axis represents % of brain perivascular macrophages that express iNOS (A), IL6 (B) and TNFα (C). […] ANOVA was used for statistical analyses.

microglia = test: Microglia metabolic phenotype in 5XFAD AD transgenic animals (MitotrackerGreen, 2-NBDG); type: in vivo, mice; settings: 25 mg/kg orally 3 times a week for 4 weeks, 7 weeks of age
Experimental: AD transgenic animals were orally treated 3 times a week for 4 weeks with 0.5% methylcellulose or ZLN005 (Sigma) at 25 mg/kg in 0.5% methylcellulose, starting at 3 weeks of age. For studies of microglia, 5[…]=10) and 5XFAD-Ctrl (n=8) animals and WT animals (n=11) were sacrificed at 7 weeks of age. PBS-perfused brain tissues of sacrificed animals were digested with Collagenase IV and processed for flow cytometry. Brain microglia were phenotyped with 2-NBDG and MitotrackerGreen (Invitrogen) for flow cytometric acquisition (LSRII, BD) and analysis (FlowJo). The results are summarized in FIG. 13; Y-axis represents % of microglia that highly expressed MitotrackerGreen (A) and had taken up 2-NBDG (B). Mitochondrial respiration and glycolysis are two key energy generating pathways in living cells. In immune cells like microglia, inflammatory transformation is associated with upregulation of glucose utilization and depression of mitochondrial biogenesis and function. […] ANOVA was used for statistical analyses.

DLB transgenic animals = test: Wheel-running test in DLB transgenic animals (SNCA*A53T); type: in vivo, mice; settings: 25 mg/kg orally 3 times a week for 12 weeks
Experimental: […] transgenic mice, an animal model in which the mutated form of human alpha synuclein is overexpressed, were generated to study pathological mechanisms in PD and DLB (Lee et al, Proc Natl Acad Sci USA. 2002, 13:8968-8970). […] DLB transgenic animals were purchased from Jackson Laboratories and were orally treated 3 times a week with 0.5% methylcellulose (Ctrl) or ZLN005 (ZLN) at 25 mg/kg in vehicle, starting at 8 weeks of age for 12 weeks. Subsequently, at 20 weeks of age, these animals were subjected to 1.5 weeks of training on a treadmill at a constant speed 10 rpm and then 1.5 weeks of training at an accelerating speed from 5-15 rpm, similar to those described in Example 8. After the training period at 21.5 and 23 weeks of age, animals were tested for motor performance at a constant speed and at an accelerating speed, respectively. DLB-ZLN mice (n=11) show an increase in latency to fall in comparison to DLB-Ctrl mice (n=9) at a constant speed of 10 rpm (271.5 seconds vs. 252.8 seconds). […] Thus, motor dysfunction of DLB mice was alleviated by ZLN005 treatment. Unpaired t-tests were used for statistical analyses.

ALS transgenic mice = test: Survival of ALS transgenic animals; type: in vivo
Experimental: ALS transgenic mice were orally treated 3 times a week with 0.5% methylcellulose or ZLN005 (Sigma) at 25 mg/kg in 0.5% methylcellulose, starting at 5, 10 and 15 weeks of age.
Survival of ALS-Ctrl (n=18) and ALS-ZLN mice (n=8) were monitored until all animals succumbed. […] Log-rank test was used for statistical analysis.

[2] = tested on: Ppargc1a pathway in the brain
Experimental: To induce symptoms of PD, MPTP (20 mg/kg) was administered intraperitoneally in sterile PBS 4 times at 2-hour intervals on day 1. […] Log-rank test was used for statistical analysis.
Ppargc1a, an inducer of mitochondrial biogenesis, is widely expressed in cells throughout the body.
For gene expression studies, animals were sacrificed on Day 4, 24 hours after the 3rd oral dosage of ZLN005, and PBS-perfused brain tissues were processed for RNA isolation, cDNA synthesis, and real-time quantitative PCR (Invitrogen). […] Unpaired t-tests were used for statistical analyses.

[3] = tested on: dopaminergic neurons in the substantia nigra; test: Immunohistochemical analysis of dopaminergic neurons in MPTP-treated animals; type: in vivo, mice; settings: 25 mg/kg orally once a day for 7 days, Day 8
Experimental: For protein expression studies, animals were sacrificed on Day 8, 24 hours after the 7th oral dosage of ZLN005, and paraformaldehyde-perfused brain tissues were processed for immunohistochemical analysis of dopaminergic neurons in the substantia nigra. The brown staining represents tyrosine hydroxylase expression in dopaminergic neurons of the substantia nigra.

**Q.** What does the source list for `CC(C)(C)c1ccc(-c2nc3ccccc3[nH]2)cc1` [ZLN005, 2-(4-tert-butylphenyl)-1H-benzimidazole]?
**A.** IL6 production in brain perivascular macrophages [1]: suppressed, although these differences did not reach statistical significance; TNFα production in brain perivascular macrophages [1]: suppressed, although these differences did not reach statistical significance; iNOS production in brain perivascular macrophages [1]: decreased; glucose uptake in microglia (2-NBDG) (microglia): decreased; mitochondrial mass in microglia (Mitotracker Green) (microglia): enhanced; latency to fall (DLB transgenic animals; accelerating speed 5-15 rpm, p <0.05 vs Ctrl): 194.0 s; latency to fall (DLB transgenic animals; constant speed 10 rpm, difference to Ctrl not statistically significant): 271.5 s; onset of hind limb paralysis (ALS transgenic mice; ALS transgenic mice): delayed; mean survival (ALS transgenic mice; ALS transgenic, 25 mg/kg orally 3 times a week starting at 5 or 10 weeks of age, p <0.05 vs ALS-Ctrl): 131 to 132 days; expression of genes involved in Ppargc1a signaling (Pgc1a), mitochondrial genes (Tfam, Nrf2, Ucp3) and anti-oxidative stress genes (Ant, Sod1, Sod2) in the brain ([2]; MPTP-treated animals, 25 mg/kg orally once a day for 3 days, Day 4): increases expression of genes; upregulation of tyrosine hydroxylase (Th) ([2]; brain of MPTP-treated animals, 25 mg/kg orally once a day for 3 days, Day 4): 15%; blood-brain barrier penetration ([2]; mouse, in vivo, po, 25 mg/kg): penetrated the blood-brain barrier; depletion of dopaminergic neurons of the substantia nigra (tyrosine hydroxylase staining) [3]: reversed
